Test system: mammary gland carcinogenesis induced by 17 β-estradiol (E2)
Assay: Estrogen (E2 pellet)-induced mammary carcinogenesis in female ACI rats
Type: in vivo
Details: for survival rate: control 100%, placebo 0%
Excerpt: This study indicates the preventative effects of Methyl Sulfonyl Methane (MSM), processed Morinda citrifolia products (e.g., Tahitian Noni juice), and their combination on estrogen-induced mammary carcinogenesis in female ACI rats.
In the study, the preventative effects of MSM, Morinda citrifolia, and their combination on mammary gland carcinogenesis induced by 17 β-estradiol (estrogen)(E2) pellet implants in female ACI rats was studied. In the experiment, sixty (60), five week old female rats were divided into four groups, fifteen (15) rats each, and placed on regular diets. Another eight (8) female ACI rats were served as the age-matched controls. Five percent placebo, five percent Morinda citrifolia, five percent MSM, a combination of five percent Morinda citrifolia and MSM in drinking water was supplied to the animals in different groups until ninety days after E2 implantation. Two weeks later, all animals were implanted subcutaneously with a 25 mg pellet containing 22.5 mg of 17 β-estradiol (e2) mixed with 2.5 mg cholesterol, and the age-matched control animals received a 25 mg cholesterol pellet implant.

CS(C)(=O)=O [MSM, Methyl Sulfonyl Methane]
body weight loss (5% in drinking water, E2-implanted female ACI rats, placebo group had significant loss vs cholesterol control): slight body weight loss
percent of the rats with mammary tumors (5% in drinking water, E2 implant, placebo group one hundred percent): fifty-seven
number of tumors per rat (5% in drinking water, E2 implant, placebo group three to seven): one to four
survival rate (160 days after E2 implantation): 73%
survival rate (180 days after E2 implantation): 20%
average tumor area (180 days after E2 implantation, placebo 17): 12 mm2
survival rate (200 days after E2 implantation): 0%

Reference: patent publication US20030157205A1, “Inhibitory and preventative effects of processed morinda citrifolia on mutagenesis and carcinogenesis in mammals” (priority 2001, published 2003)
